Measurements as given in patent US20250109135A1, “NOVEL ISOINDOLINONE DERIVATIVE COMPOUNDS AS CASPASE INHIBITORS” (INNOVO THERAPEUTICS INC., priority 2022, published 2025).
Read-outs that look alike come from different tables or passages of the source.

What was measured:
[1] = tested on: Secreted IL-1β in THP-1 cells; test: Interleukin-1β inhibitory activity in human monocytic cells THP-1 (ELISA); assay type: cell-based; details: compound 100 nM, PMA-differentiated THP-1, LPS 10 μg/ml then 5 mM ATP, 24 h
Experimental: Caspase-1 is known as […] (ICE). Activated Caspase-1 is involved in the cleavage of pro-form IL-1β to produce the mature form, which is then secreted to induce inflammation. Therefore, the compounds identified in Experimental example 1 were tested to determine if their Caspase-1 inhibitory activity affected the production of […].
THP-1 (ATCC) cells were cultured in RPMI 1640 (Hyclone) growth medium comprising 10% Fetal bovine serum (FBS, Gibco) and antibiotics (100 U/ml Penicillin, 0.1 mg/ml Streptomycin, Cytiva) under 37° C., 5% CO2 conditions. Cultured THP-1 cells were seeded in growth medium to a concentration of 3×10^5 cells/well in 24-well plates (Celvest) and then treated with 1 μM Phorbol 12-myristate 13-acetate (PMA) (Sigma) for 24 hours to induce differentiation. Differentiated THP-1 were pre treated with 10 μg/ml Lipopolysaccharide (LPS, from E. coli 0111:B4 (InvivoGen)) in serum free RPMI 1640 medium for 24 hours to induce an inflammatory response. After removal of LPS, the compounds were pretreated for 1 h at a concentration of 100 nM using the same medium, followed by the addition of 5 mM ATP (InvivoGen) and incubation for 24 h in an incubator. The treated medium was collected and centrifuged, and IL-1β was quantified using an Enzyme linked immunoassay kit (ELISA kit, R&D system), and absorbance was measured at 450 nm using a CLARIOstar Plus spectrometer. Inhibitory activity was denoted as a if it was 50% or more, b if it was 30% or more but less than 50%, c if it was 10% or more but less than 30%, and d if it was less than 10%.

[2] = target: T1, recombinant human Caspase-1 (Homo sapiens, UniProt P29466); test: Caspase-1 inhibitory activity, fluorescent substrate Ac-YVAD-AFC; assay type: biochemical
T1 construct: purchased Enzo life science
T1 sequence (P29466 120-297 limits assumed): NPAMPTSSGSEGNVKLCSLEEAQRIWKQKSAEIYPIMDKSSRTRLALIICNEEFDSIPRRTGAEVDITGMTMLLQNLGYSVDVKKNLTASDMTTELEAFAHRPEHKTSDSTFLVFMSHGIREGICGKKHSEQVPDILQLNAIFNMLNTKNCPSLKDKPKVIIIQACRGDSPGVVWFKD
T1 sequence (P29466 317-404 limits assumed): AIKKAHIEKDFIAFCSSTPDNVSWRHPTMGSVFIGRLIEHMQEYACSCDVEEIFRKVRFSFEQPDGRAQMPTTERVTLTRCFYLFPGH
Experimental: To determine the Caspase-1 inhibitory activity of the compounds of the present invention prepared in Example, Caspase-1 activity was measured using a substrate with a fluorescent dye attached to it. […] The compound was dissolved in DMSO and stored at −20° C. Enzymatic reactions were carried out in a buffer comprising 50 mM HEPES (pH 8.0), 50 mM KCl, 200 mM NaCl, 10 mM DTT, 0.1% CHAPS (w/v). Enzyme inactivation was measured in the presence of different concentrations of the compound using the fluorescent substrate N-Acetyl-Tyr-Val-Ala-Asp-7-amido-4-trifluoromethylcoumarin (Ac-YVAD-AFC) (Sigma) at a concentration of 50 μM and 1 unit of recombinant human Caspase-1 (Enzo life science). A CLARIOstar Plus spectrometer (BMG Labtech) was used to measure the reaction rate as a function of time in the 400/505 nm (Ex/Em) wavelength band. […] If kobs/[I] is 20 or more, it is denoted as A, if it is 10 or more but less than 20, it is denoted as B, if it is 1 or more but less than 10, it is denoted as C, and if it is less than 1, it is denoted as D.
In the above equation, At means the enzyme reaction rate at time t (min), and Amax means the maximum reaction rate.

[3] = pH 8, 1 unit recombinant human Caspase-1, 50 μM Ac-YVAD-AFC, read-out: kobs/[I] Caspase-1
[4] = pH 8, read-out: kobs/[I] Caspase-1

Row | SMILES | kinact/KI [2, 3] | inhibition at 0.1 µM [1] | kinact/KI [2, 4]
1 | CCC(C(=O)NC(CC(=O)O)C(=O)CF)N1Cc2ccc(Nc3cccc4ccccc34)cc2C1=O (centres unmarked) [Compound 11, 5-fluoro-3-(2-(6-(naphthalen-1-ylamino)-1-oxoisoindolin-2-yl)butanamido)-4-oxopentanoic acid] | < 0.0167 M⁻¹ s⁻¹ | 30 to 50% | 
2 | CCC(C(=O)NC(CC(=O)O)C(=O)CF)N1Cc2ccc(-c3ccc(S(C)(=O)=O)cc3F)cc2C1=O (centres unmarked) [Compound 12, 5-fluoro-3-(2-(6-(2-fluoro-4-(methylsulfonyl)phenyl)-1-oxoisoindolin-2-yl)butanamido)-4-oxopentanoic acid] | 0.0167 to 0.167 M⁻¹ s⁻¹ | 10 to 30% | 
3 | C[C@@H](C(=O)NC(CC(=O)O)C(=O)CF)N1Cc2ccc(N3CCCC3)cc2C1=O (some centres unmarked) [Compound 46, 5-fluoro-4-oxo-3-(2-(1-oxo-6-(pyrrolidin-1-yl)isoindolin-2-yl)propanamido)pentanoic acid] |  |  | < 0.0167 M⁻¹ s⁻¹
4 | C[C@@H](C(=O)NC(CC(=O)O)C(=O)CF)N1Cc2ccc(-c3ccc4[nH]c(=O)[nH]c4c3)cc2C1=O (some centres unmarked) [Compound 47, 5-fluoro-4-oxo-3-(2-(1-oxo-6-(2-oxo-2,3-dihydro-1H-benzo[d]imidazol-5-yl)isoindolin-2-yl)propanamido)pentanoic acid] |  |  | 0.0167 to 0.167 M⁻¹ s⁻¹
5 | CC[C@@H](C(=O)NC(CC(=O)O)C(=O)CF)N1Cc2cc(N3CCn4cc(C(F)(F)F)nc4C3)ccc2C1=O (stereo partly drawn) [Compound 62, 5-fluoro-4-oxo-3-((S)-2-(1-oxo-5-(2-(trifluoromethyl)-5,6-dihydroimidazo[1,2-a]pyrazin-7(8H)-yl)isoindolin-2-yl)butanamido)pentanoic acid] |  |  | < 0.0167 M⁻¹ s⁻¹
6 | CC[C@@H](C(=O)NC(CC(=O)O)C(=O)CF)N1Cc2cc(N3CCN(c4nsc5ccccc45)CC3)ccc2C1=O (stereo partly drawn) [Compound 63, 3-((S)-2-(5-(4-(benzo[d]isothiazol-3-yl)piperazin-1-yl)-1-oxoisoindolin-2-yl)butanamido)-5-fluoro-4-oxopentanoic acid] |  |  | < 0.0167 M⁻¹ s⁻¹
7 | CC[C@@H](C(=O)NC(CC(=O)O)C(=O)CF)N1Cc2cc(N3CCCC3)ccc2C1=O (stereo partly drawn) [Compound 64, 5-fluoro-4-oxo-3-((S)-2-(1-oxo-5-(pyrrolidin-1-yl)isoindolin-2-yl)butanamido)pentanoic acid] |  |  | < 0.0167 M⁻¹ s⁻¹

Now from value to molecule, other results behind:

Row | kinact/KI [2, 3] | SMILES | inhibition at 0.1 µM [1] | kinact/KI [2, 4]
8 | 0.0167 to 0.167 M⁻¹ s⁻¹ | CCC(C(=O)NC(CC(=O)O)C(=O)CF)N1Cc2ccc(C3=CCN(S(C)(=O)=O)CC3)cc2C1=O (centres unmarked) [Compound 7, 5-fluoro-3-(2-(6-(1-(methylsulfonyl)-1,2,3,6-tetrahydropyridin-4-yl)-1-oxoisoindolin-2-yl)butanamido)-4-oxopentanoic acid] | < 10% | 
9 | 0.0167 to 0.167 M⁻¹ s⁻¹ | CCC(C(=O)NC(CC(=O)O)C(=O)CF)N1Cc2ccc(-c3ccc(C(F)(F)F)cc3)cc2C1=O (centres unmarked) [Compound 14, 5-fluoro-4-oxo-3-(2-(1-oxo-6-(4-(trifluoromethyl)phenyl)isoindolin-2-yl)butanamido)pentanoic acid] | < 10% | 
10 | < 0.0167 M⁻¹ s⁻¹ | CCC(C(=O)NC(CC(=O)O)C(=O)CF)N1Cc2ccc(C3=CCOCC3)cc2C1=O (centres unmarked) [Compound 15, 3-(2-(6-(3,6-dihydro-2H-pyran-4-yl)-1-oxoisoindolin-2-yl)butanamido)-5-fluoro-4-oxopentanoic acid] | < 10% | 
11 | < 0.0167 M⁻¹ s⁻¹ | C[C@@H](C(=O)NC(CC(=O)O)C(=O)CF)N1Cc2ccc(-c3ccc4c(c3)OCCO4)cc2C1=O (some centres unmarked) [Compound 48, 3-(2-(6-(2,3-dihydrobenzo[b][1,4]dioxin-6-yl)-1-oxoisoindolin-2-yl)propanamido)-5-fluoro-4-oxopentanoic acid] |  | 
12 | 0.167 to 0.333 M⁻¹ s⁻¹ | C[C@@H](C(=O)NC(CC(=O)O)C(=O)CF)N1Cc2ccc(-c3coc4ccccc34)cc2C1=O (some centres unmarked) [Compound 49, 3-(2-(6-(benzofuran-3-yl)-1-oxoisoindolin-2-yl)propanamido)-5-fluoro-4-oxopentanoic acid] |  | 
